Data: the NIST ThermoML archive (doi:10.1021/je900719z)
Numbers after ± are expanded uncertainties.

Settings: Liquid, Ebulliometric method (Recirculating still)

SMILES: O [water]
- vapor or sublimation pressure (333.02 K): 19.55 ± 0.1 kPa
- vapor or sublimation pressure (333.56 K): 20.05 ± 0.1 kPa
- vapor or sublimation pressure (334.08 K): 20.55 ± 0.1 kPa
- vapor or sublimation pressure (334.59 K): 21.05 ± 0.1 kPa
- vapor or sublimation pressure (335.15 K): 21.6 ± 0.1 kPa
- vapor or sublimation pressure (335.64 K): 22.1 ± 0.1 kPa
- vapor or sublimation pressure (336.11 K): 22.6 ± 0.1 kPa
- vapor or sublimation pressure (336.66 K): 23.15 ± 0.1 kPa
- vapor or sublimation pressure (337.12 K): 23.65 ± 0.1 kPa
- vapor or sublimation pressure (337.65 K): 24.22 ± 0.1 kPa
- vapor or sublimation pressure (338.13 K): 24.75 ± 0.1 kPa
- vapor or sublimation pressure (338.6 K): 25.3 ± 0.1 kPa
- vapor or sublimation pressure (339.12 K): 25.9 ± 0.1 kPa
- vapor or sublimation pressure (339.62 K): 26.45 ± 0.1 kPa
- vapor or sublimation pressure (340.15 K): 27.1 ± 0.1 kPa
- vapor or sublimation pressure (340.63 K): 27.7 ± 0.1 kPa
- vapor or sublimation pressure (341.25 K): 28.45 ± 0.1 kPa
- vapor or sublimation pressure (341.67 K): 29 ± 0.1 kPa
- vapor or sublimation pressure (342.13 K): 29.6 ± 0.1 kPa
- vapor or sublimation pressure (342.71 K): 30.33 ± 0.1 kPa
- vapor or sublimation pressure (343.17 K): 30.95 ± 0.1 kPa
- vapor or sublimation pressure (343.73 K): 31.72 ± 0.1 kPa
- vapor or sublimation pressure (344.21 K): 32.4 ± 0.1 kPa
- vapor or sublimation pressure (344.73 K): 33.15 ± 0.1 kPa
- vapor or sublimation pressure (345.22 K): 33.85 ± 0.1 kPa
- vapor or sublimation pressure (345.66 K): 34.5 ± 0.1 kPa
- vapor or sublimation pressure (346.11 K): 35.15 ± 0.1 kPa
- vapor or sublimation pressure (346.61 K): 35.9 ± 0.11 kPa
- vapor or sublimation pressure (347.15 K): 36.75 ± 0.11 kPa
- vapor or sublimation pressure (347.62 K): 37.5 ± 0.11 kPa
- vapor or sublimation pressure (348.15 K): 38.32 ± 0.11 kPa
- vapor or sublimation pressure (348.22 K): 38.47 ± 0.11 kPa
- vapor or sublimation pressure (348.65 K): 39.18 ± 0.11 kPa
- vapor or sublimation pressure (349.17 K): 40.04 ± 0.11 kPa
- vapor or sublimation pressure (349.68 K): 40.88 ± 0.11 kPa
- vapor or sublimation pressure (350.22 K): 41.85 ± 0.11 kPa
- vapor or sublimation pressure (350.66 K): 42.59 ± 0.11 kPa
- vapor or sublimation pressure (351.18 K): 43.5 ± 0.11 kPa
- vapor or sublimation pressure (351.67 K): 44.39 ± 0.11 kPa
- vapor or sublimation pressure (352.13 K): 45.28 ± 0.11 kPa
- vapor or sublimation pressure (352.64 K): 46.19 ± 0.11 kPa
- vapor or sublimation pressure (353.13 K): 47.14 ± 0.11 kPa
- vapor or sublimation pressure (353.65 K): 48.15 ± 0.11 kPa
- vapor or sublimation pressure (354.12 K): 49.06 ± 0.11 kPa
- vapor or sublimation pressure (354.63 K): 50.07 ± 0.11 kPa
- vapor or sublimation pressure (355.13 K): 51.1 ± 0.11 kPa
- vapor or sublimation pressure (355.71 K): 52.36 ± 0.11 kPa
- vapor or sublimation pressure (356.14 K): 53.24 ± 0.11 kPa
- vapor or sublimation pressure (356.65 K): 54.34 ± 0.11 kPa
- vapor or sublimation pressure (357.13 K): 55.42 ± 0.11 kPa
- vapor or sublimation pressure (357.69 K): 56.64 ± 0.11 kPa
- vapor or sublimation pressure (358.16 K): 57.69 ± 0.11 kPa
- vapor or sublimation pressure (358.65 K): 58.78 ± 0.11 kPa
- vapor or sublimation pressure (359.19 K): 60.08 ± 0.11 kPa
- vapor or sublimation pressure (359.62 K): 61.09 ± 0.11 kPa
- vapor or sublimation pressure (360.26 K): 62.64 ± 0.11 kPa
- vapor or sublimation pressure (360.74 K): 63.82 ± 0.11 kPa
- vapor or sublimation pressure (361.2 K): 64.95 ± 0.11 kPa
- vapor or sublimation pressure (361.61 K): 65.98 ± 0.11 kPa
- vapor or sublimation pressure (362.13 K): 67.33 ± 0.11 kPa
- vapor or sublimation pressure (362.71 K): 68.85 ± 0.11 kPa
- vapor or sublimation pressure (363.17 K): 70.05 ± 0.11 kPa
- vapor or sublimation pressure (363.72 K): 71.54 ± 0.11 kPa
- vapor or sublimation pressure (364.28 K): 73.07 ± 0.12 kPa
- vapor or sublimation pressure (364.75 K): 74.38 ± 0.12 kPa
- vapor or sublimation pressure (365.34 K): 76.08 ± 0.12 kPa
- vapor or sublimation pressure (365.84 K): 77.53 ± 0.12 kPa
- vapor or sublimation pressure (366.34 K): 78.95 ± 0.12 kPa
- vapor or sublimation pressure (366.86 K): 80.58 ± 0.12 kPa
- vapor or sublimation pressure (367.35 K): 82.03 ± 0.12 kPa
- vapor or sublimation pressure (367.83 K): 83.48 ± 0.12 kPa
- vapor or sublimation pressure (368.33 K): 85.04 ± 0.12 kPa
- vapor or sublimation pressure (368.8 K): 86.54 ± 0.12 kPa
- vapor or sublimation pressure (369.27 K): 88.07 ± 0.12 kPa
- vapor or sublimation pressure (369.69 K): 89.44 ± 0.12 kPa
- vapor or sublimation pressure (370.03 K): 90.54 ± 0.12 kPa
- vapor or sublimation pressure (370.62 K): 92.52 ± 0.12 kPa
- vapor or sublimation pressure (371.09 K): 94.12 ± 0.12 kPa
- vapor or sublimation pressure (371.52 K): 95.59 ± 0.12 kPa
- vapor or sublimation pressure (371.94 K): 97.02 ± 0.12 kPa
- vapor or sublimation pressure (372.36 K): 98.48 ± 0.12 kPa
- vapor or sublimation pressure (372.78 K): 100.03 ± 0.13 kPa
- vapor or sublimation pressure (373.16 K): 101.39 ± 0.13 kPa
- vapor or sublimation pressure (373.59 K): 103 ± 0.13 kPa
- vapor or sublimation pressure (374 K): 104.48 ± 0.13 kPa
- vapor or sublimation pressure (374.39 K): 105.94 ± 0.13 kPa
- vapor or sublimation pressure (374.82 K): 107.57 ± 0.13 kPa
- vapor or sublimation pressure (375.18 K): 108.97 ± 0.13 kPa
- vapor or sublimation pressure (375.6 K): 110.58 ± 0.13 kPa
- vapor or sublimation pressure (376.1 K): 112.55 ± 0.13 kPa
- vapor or sublimation pressure (376.46 K): 113.99 ± 0.13 kPa
- vapor or sublimation pressure (376.86 K): 115.58 ± 0.13 kPa
- vapor or sublimation pressure (377.21 K): 117.02 ± 0.13 kPa
- vapor or sublimation pressure (377.57 K): 118.54 ± 0.13 kPa
- vapor or sublimation pressure (377.92 K): 119.94 ± 0.13 kPa
- vapor or sublimation pressure (378.29 K): 121.58 ± 0.13 kPa
- vapor or sublimation pressure (378.65 K): 123.07 ± 0.13 kPa
- vapor or sublimation pressure (378.99 K): 124.48 ± 0.13 kPa
- vapor or sublimation pressure (379.33 K): 126.01 ± 0.13 kPa
- vapor or sublimation pressure (379.71 K): 127.64 ± 0.13 kPa
- vapor or sublimation pressure (380 K): 128.92 ± 0.14 kPa
- vapor or sublimation pressure (380.36 K): 130.53 ± 0.14 kPa
- vapor or sublimation pressure (380.74 K): 132.25 ± 0.14 kPa

SMILES: CCO [ethanol]
- vapor or sublimation pressure (325.48 K): 33 ± 0.11 kPa
- vapor or sublimation pressure (326.03 K): 33.9 ± 0.11 kPa
- vapor or sublimation pressure (326.48 K): 34.6 ± 0.11 kPa
- vapor or sublimation pressure (326.93 K): 35.3 ± 0.11 kPa
- vapor or sublimation pressure (327.33 K): 36 ± 0.11 kPa
- vapor or sublimation pressure (327.8 K): 36.8 ± 0.11 kPa
- vapor or sublimation pressure (328.26 K): 37.6 ± 0.11 kPa
- vapor or sublimation pressure (328.73 K): 38.4 ± 0.11 kPa
- vapor or sublimation pressure (329.18 K): 39.2 ± 0.11 kPa
- vapor or sublimation pressure (329.62 K): 40 ± 0.11 kPa
- vapor or sublimation pressure (330.11 K): 40.9 ± 0.11 kPa
- vapor or sublimation pressure (330.62 K): 41.9 ± 0.11 kPa
- vapor or sublimation pressure (331.16 K): 42.9 ± 0.11 kPa
- vapor or sublimation pressure (331.66 K): 43.9 ± 0.11 kPa
- vapor or sublimation pressure (332.17 K): 44.9 ± 0.11 kPa
- vapor or sublimation pressure (332.68 K): 45.9 ± 0.11 kPa
- vapor or sublimation pressure (333.15 K): 46.9 ± 0.11 kPa
- vapor or sublimation pressure (333.86 K): 48.4 ± 0.11 kPa
- vapor or sublimation pressure (334.55 K): 49.9 ± 0.11 kPa
- vapor or sublimation pressure (335.17 K): 51.3 ± 0.11 kPa
- vapor or sublimation pressure (335.84 K): 52.8 ± 0.11 kPa
- vapor or sublimation pressure (336.28 K): 53.85 ± 0.11 kPa
- vapor or sublimation pressure (336.81 K): 55.13 ± 0.11 kPa
- vapor or sublimation pressure (337.31 K): 56.32 ± 0.11 kPa
- vapor or sublimation pressure (337.86 K): 57.69 ± 0.11 kPa
- vapor or sublimation pressure (338.32 K): 58.87 ± 0.11 kPa
- vapor or sublimation pressure (338.97 K): 60.49 ± 0.11 kPa
- vapor or sublimation pressure (339.47 K): 61.82 ± 0.11 kPa
- vapor or sublimation pressure (339.99 K): 63.19 ± 0.11 kPa
- vapor or sublimation pressure (340.47 K): 64.47 ± 0.12 kPa
- vapor or sublimation pressure (340.82 K): 65.48 ± 0.12 kPa
- vapor or sublimation pressure (341.18 K): 66.45 ± 0.12 kPa
- vapor or sublimation pressure (341.68 K): 67.91 ± 0.12 kPa
- vapor or sublimation pressure (342.01 K): 68.92 ± 0.12 kPa
- vapor or sublimation pressure (342.53 K): 70.35 ± 0.12 kPa
- vapor or sublimation pressure (343.05 K): 71.88 ± 0.12 kPa
- vapor or sublimation pressure (343.54 K): 73.35 ± 0.12 kPa
- vapor or sublimation pressure (343.97 K): 74.68 ± 0.12 kPa
- vapor or sublimation pressure (344.41 K): 76.08 ± 0.12 kPa
- vapor or sublimation pressure (344.93 K): 77.68 ± 0.12 kPa
- vapor or sublimation pressure (345.3 K): 78.95 ± 0.12 kPa
- vapor or sublimation pressure (345.77 K): 80.44 ± 0.12 kPa
- vapor or sublimation pressure (346.17 K): 81.82 ± 0.12 kPa
- vapor or sublimation pressure (346.75 K): 83.74 ± 0.12 kPa
- vapor or sublimation pressure (347.17 K): 85.17 ± 0.12 kPa
- vapor or sublimation pressure (347.51 K): 86.38 ± 0.12 kPa
- vapor or sublimation pressure (347.91 K): 87.78 ± 0.12 kPa
- vapor or sublimation pressure (348.29 K): 89.17 ± 0.12 kPa
- vapor or sublimation pressure (348.62 K): 90.34 ± 0.12 kPa
- vapor or sublimation pressure (349.03 K): 91.82 ± 0.13 kPa
- vapor or sublimation pressure (349.36 K): 93.08 ± 0.13 kPa
- vapor or sublimation pressure (349.67 K): 94.24 ± 0.13 kPa
- vapor or sublimation pressure (350.05 K): 95.68 ± 0.13 kPa
- vapor or sublimation pressure (350.44 K): 97.16 ± 0.13 kPa
- vapor or sublimation pressure (350.82 K): 98.63 ± 0.13 kPa
- vapor or sublimation pressure (351.17 K): 100.02 ± 0.13 kPa
- vapor or sublimation pressure (351.51 K): 101.38 ± 0.13 kPa
- vapor or sublimation pressure (351.76 K): 102.37 ± 0.13 kPa
- vapor or sublimation pressure (352.07 K): 103.64 ± 0.13 kPa
- vapor or sublimation pressure (352.45 K): 105.17 ± 0.13 kPa
- vapor or sublimation pressure (352.79 K): 106.59 ± 0.13 kPa
- vapor or sublimation pressure (353.15 K): 108.08 ± 0.13 kPa
- vapor or sublimation pressure (353.5 K): 109.58 ± 0.13 kPa
- vapor or sublimation pressure (353.79 K): 110.8 ± 0.13 kPa
- vapor or sublimation pressure (354.14 K): 112.36 ± 0.13 kPa
- vapor or sublimation pressure (354.46 K): 113.75 ± 0.13 kPa
- vapor or sublimation pressure (354.82 K): 115.35 ± 0.14 kPa
- vapor or sublimation pressure (355.15 K): 116.81 ± 0.14 kPa
- vapor or sublimation pressure (355.51 K): 118.44 ± 0.14 kPa
- vapor or sublimation pressure (355.85 K): 120.01 ± 0.14 kPa
- vapor or sublimation pressure (356.22 K): 121.68 ± 0.14 kPa
- vapor or sublimation pressure (356.54 K): 123.23 ± 0.14 kPa
- vapor or sublimation pressure (356.81 K): 124.46 ± 0.14 kPa
- vapor or sublimation pressure (357.16 K): 126.16 ± 0.14 kPa
- vapor or sublimation pressure (357.48 K): 127.68 ± 0.14 kPa
- vapor or sublimation pressure (357.89 K): 129.67 ± 0.14 kPa
